In patent US7846697B2, “Method of producing a low molecular weight organic compound in a cell” (BLMaps, priority 2003, dated 2010):

Key:
[1] = test system: E. coli strain KO1418 transformants; assay: Toxicity of vanillin with IPTG-induced expression of UGT85B1 or AS, growth on plates; assay type: cell-based; design: key: −: No growth; +: weak growth; ++: good growth; conditions: KO1418 [pJH410]
[2] = test system: E. coli strain JM109 transformants; assay: as above; assay type: cell-based; further: key: −: No growth; +: weak growth; ++: good growth
Method: The E. coli strains TOP10, JM109, and KO1418 were all transformed with the constructed plasmids pJH401, pJH402, pJH411 and pJH412, and pKK223-3 as control, employing standard transformation protocols. Transformants were selected for ampicilin resistance, and two transformants of each E. coli strain with each plasmid were kept for expression experiments. The E. coli transformants were inoculated from plate cultures into 2 ml liquid growth medium (LB medium containing ampicilin at 100 μg/ml), and allowed to grow for 20 hours at 37° C. The precultures were diluted 100 times 10^4 times and 10^6 times in growth medium, and 4 μl droplets of these cell suspensions were applied to the surface of Petri dishes containing solid LB-ampicilin medium containing varying concentrations of vanillin (based on the STV determinations described above), and without or with (to induce gene expression) 1 mM isopropyl thiogalactoside (IPTG). The plates were incubated at 37° C. for 24 hours, after which growth on the various concentrations of vanillin was monitored and recorded.

## COc1cc(C=O)ccc1O [Vanillin, vanillin]
[1]; 0.08% vanillin, IPTG induction Yes
  growth: ++
[1]; 0.12% vanillin, IPTG induction No
  growth: ++
[1]; 0.2% vanillin, IPTG induction Yes
  growth: ++
[2]; JM109 [pJH401], 0.08% vanillin, IPTG induction No
  growth: ++
[2]; JM109 [pJH401], 0.08% vanillin, IPTG induction Yes
  growth: ++
[2]; JM109 [pJH401], 0.12% vanillin, IPTG induction No
  growth: ++
[2]; JM109 [pJH401], 0.12% vanillin, IPTG induction Yes
  growth: ++
[2]; JM109 [pJH401], 0.16% vanillin, IPTG induction No
  growth: −
[2]; JM109 [pJH401], 0.16% vanillin, IPTG induction Yes
  growth: −
[2]; JM109 [pJH401], 0.2% vanillin, IPTG induction No
  growth: −
[2]; JM109 [pJH401], 0.2% vanillin, IPTG induction Yes
  growth: −
[2]; JM109 [pJH402], 0.08% vanillin, IPTG induction No
  growth: ++
[2]; JM109 [pJH402], 0.08% vanillin, IPTG induction Yes
  growth: ++
[2]; JM109 [pJH402], 0.12% vanillin, IPTG induction No
  growth: ++
[2]; JM109 [pJH402], 0.12% vanillin, IPTG induction Yes
  growth: ++
[2]; JM109 [pJH402], 0.16% vanillin, IPTG induction No
  growth: +
[2]; JM109 [pJH402], 0.16% vanillin, IPTG induction Yes
  growth: ++
[2]; JM109 [pJH402], 0.2% vanillin, IPTG induction No
  growth: −
[2]; JM109 [pJH402], 0.2% vanillin, IPTG induction Yes
  growth: −
[2]; JM109 [pJH410], 0.08% vanillin, IPTG induction Yes
  growth: ++
[2]; JM109 [pJH410], 0.12% vanillin, IPTG induction No
  growth: ++
[2]; JM109 [pJH410], 0.12% vanillin, IPTG induction Yes
  growth: ++
[2]; JM109 [pJH410], 0.16% vanillin, IPTG induction No
  growth: ++
[2]; JM109 [pJH410], 0.16% vanillin, IPTG induction Yes
  growth: +
[2]; JM109 [pJH410], 0.2% vanillin, IPTG induction Yes
  growth: −
[2]; JM109 [pKK223-3], 0.08% vanillin, IPTG induction No
  growth: ++
[2]; JM109 [pKK223-3], 0.08% vanillin, IPTG induction Yes
  growth: ++
[2]; JM109 [pKK223-3], 0.12% vanillin, IPTG induction No
  growth: ++
[2]; JM109 [pKK223-3], 0.12% vanillin, IPTG induction Yes
  growth: ++
[2]; JM109 [pKK223-3], 0.16% vanillin, IPTG induction No
  growth: −
[2]; JM109 [pKK223-3], 0.16% vanillin, IPTG induction Yes
  growth: −
[2]; JM109 [pKK223-3], 0.2% vanillin, IPTG induction No
  growth: −
[2]; JM109 [pKK223-3], 0.2% vanillin, IPTG induction Yes
  growth: −
